The Ki is a measure of affinity in units of concentration, obtained from inhibition or displacement. Read a high Ki as weaker binding. The term AUC denotes the area under the concentration-time curve, a measure of exposure. Read a low AUC as less exposure. What is called bioavailability is the share of a dose that reaches the circulation, judged against a reference dose that is usually intravenous. A low value points to poor availability.

The target in series [1] is D(1A) dopamine receptor (Homo sapiens, UniProt P21728). The series can be described thus: Binding affinity to dopamine D1 receptor.
Series [2] deals with D(1B) dopamine receptor (Homo sapiens, UniProt P21918). The series can be described thus: Binding affinity to dopamine D5 receptor.
Series [3] concerns the target D(2) dopamine receptor (Homo sapiens, UniProt P14416). The series can be described thus: Binding affinity to dopamine D2 receptor.
Series [4] has as its target T1, D(4) dopamine receptor (Homo sapiens, UniProt P21917).
T1 sequence (P21917 whole entry): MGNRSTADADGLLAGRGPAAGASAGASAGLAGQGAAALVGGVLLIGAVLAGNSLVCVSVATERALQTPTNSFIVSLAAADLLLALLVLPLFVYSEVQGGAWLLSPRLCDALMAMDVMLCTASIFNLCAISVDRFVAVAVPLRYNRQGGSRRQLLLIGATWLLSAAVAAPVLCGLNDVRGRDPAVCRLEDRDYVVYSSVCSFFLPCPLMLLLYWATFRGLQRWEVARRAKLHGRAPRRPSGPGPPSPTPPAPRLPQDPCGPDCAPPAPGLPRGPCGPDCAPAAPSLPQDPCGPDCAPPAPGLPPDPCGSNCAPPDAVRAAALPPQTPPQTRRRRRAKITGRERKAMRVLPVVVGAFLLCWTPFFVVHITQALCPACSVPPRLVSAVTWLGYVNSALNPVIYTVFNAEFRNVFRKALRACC
Description: Binding affinity to dopamine D4 receptor.

Series [5] can be described thus: Selectivity ratio, Ki for dopamine D1 receptor to Ki for dopamine D2 receptor.
The nature of series [6]: AUC in rat. It is filed as ADME, organism-based. The note with it: plasma.
Series [7] is described as follows: Oral bioavailability in rat. Format: ADME, organism-based. The note with it: in vivo.

D(1A) dopamine receptor, sequence (P21728 whole entry): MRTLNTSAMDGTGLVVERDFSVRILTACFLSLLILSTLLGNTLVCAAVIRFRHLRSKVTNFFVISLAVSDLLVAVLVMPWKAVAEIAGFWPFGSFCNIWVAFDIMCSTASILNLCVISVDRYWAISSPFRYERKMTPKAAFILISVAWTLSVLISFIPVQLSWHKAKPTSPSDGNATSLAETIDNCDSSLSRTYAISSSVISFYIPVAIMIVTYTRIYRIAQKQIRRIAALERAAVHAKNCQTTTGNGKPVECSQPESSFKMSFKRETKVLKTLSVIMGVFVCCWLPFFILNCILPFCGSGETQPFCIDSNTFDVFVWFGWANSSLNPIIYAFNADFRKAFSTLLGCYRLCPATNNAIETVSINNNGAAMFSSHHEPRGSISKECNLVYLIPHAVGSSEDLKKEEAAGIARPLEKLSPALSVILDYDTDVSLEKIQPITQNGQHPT
D(1B) dopamine receptor, sequence (P21918 whole entry): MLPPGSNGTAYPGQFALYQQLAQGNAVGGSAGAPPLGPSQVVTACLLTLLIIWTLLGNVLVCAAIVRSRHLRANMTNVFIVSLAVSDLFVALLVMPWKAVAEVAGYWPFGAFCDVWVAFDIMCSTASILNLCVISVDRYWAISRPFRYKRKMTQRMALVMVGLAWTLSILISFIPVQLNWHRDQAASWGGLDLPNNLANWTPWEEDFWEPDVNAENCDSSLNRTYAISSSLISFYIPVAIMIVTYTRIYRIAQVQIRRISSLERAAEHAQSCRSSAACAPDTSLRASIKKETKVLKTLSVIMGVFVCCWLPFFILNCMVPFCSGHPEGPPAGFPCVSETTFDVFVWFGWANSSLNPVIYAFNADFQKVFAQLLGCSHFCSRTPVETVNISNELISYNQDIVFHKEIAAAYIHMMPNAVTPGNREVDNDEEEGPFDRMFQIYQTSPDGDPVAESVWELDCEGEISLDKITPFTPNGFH
D(2) dopamine receptor, sequence (P14416 whole entry): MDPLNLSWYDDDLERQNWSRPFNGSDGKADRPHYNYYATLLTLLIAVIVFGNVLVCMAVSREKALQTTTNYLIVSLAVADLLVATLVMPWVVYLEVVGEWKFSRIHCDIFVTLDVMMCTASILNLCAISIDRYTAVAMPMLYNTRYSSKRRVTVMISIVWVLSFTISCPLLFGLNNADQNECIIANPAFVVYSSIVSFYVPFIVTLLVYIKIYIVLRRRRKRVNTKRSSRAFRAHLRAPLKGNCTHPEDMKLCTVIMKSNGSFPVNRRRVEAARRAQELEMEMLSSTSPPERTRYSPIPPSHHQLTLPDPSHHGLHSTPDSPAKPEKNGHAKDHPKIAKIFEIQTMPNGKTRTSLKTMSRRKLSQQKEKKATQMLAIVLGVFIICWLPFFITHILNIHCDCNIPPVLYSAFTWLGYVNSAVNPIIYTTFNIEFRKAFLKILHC

On to `CN1CCc2cc(Cl)c(O)cc2[C@H]2c3cccc(N)c3CC[C@@H]21`, for which the inhibition constant (Ki) in series [1] was 2.8 nM; in series [2], 7 nM; in series [3], 2100 nM; in series [4], > 10 µM.

For the compound `CN1CCc2cc(Cl)c(O)cc2[C@H]2c3cccc(NC(=O)C4CC4)c3CC[C@@H]21`, the inhibition constant Ki in series [1] was 5.7 nM; in series [3], 2140 nM.

Consider `CN1CCc2cc(Cl)c(O)cc2[C@H]2c3cc(CN4CCN(c5ccccn5)CC4)ccc3CC[C@@H]21`, for which the figures for the Ki in series [1] and in series [3] were 152 nM and 1.3 nM, respectively. In addition, the Ratio Ki in series [5] amounted to 117.

As for `CN1CCc2cc(Cl)c(O)cc2[C@@H](c2ccc(CN(C3CCC3)S(C)(=O)=O)cc2)C1`, the Ki in series [1] is 0.5 nM; in series [2], 5.9 nM; in series [3], 2000 nM; in series [4], > 10 µM.

On to `CCC(=O)Nc1cccc2c1CC[C@H]1[C@H]2c2cc(O)c(Cl)cc2CCN1C`, for which the Ki in series [1] turned out to be 2.3 nM; in series [3], 500 nM.

Take `CN1CCc2cc(Cl)c(O)cc2[C@@H](c2ccc(CNc3ccccc3)cc2)C1`: the results for the Ki in series [1] and in series [3] were 2 nM and 2000 nM, respectively.

For the compound `CC(=O)N(Cc1ccc([C@H]2CN(C)CCc3cc(Cl)c(O)cc32)cc1)C1CCC1`, the Ki is 0.2 nM in series [1], 13 nM in series [2], 159 nM in series [3] and > 10 µM in series [4].

`CN1CCc2cc(Cl)c(O)cc2[C@H]2c3ccccc3CC[C@@H]21` [ECOPIPAM] gave an area under the curve (AUC) in series [6] of 156 ng·h/mL. In series [7], the bioavailability is 0.6%.

Turning to `CN1CCc2cc(Cl)c(O)cc2[C@@H](c2ccc(CN(Cc3ccccc3)c3ccc(F)cc3F)cc2)C1`, the Ki in series [1] was 0.7 nM; in series [3], 552 nM.

As for `CN1CCc2cc(Cl)c(O)cc2[C@@H](c2ccc(CN(C)S(C)(=O)=O)cc2)C1`, the Ki in series [1] was determined as 0.5 nM; in series [3], 6000 nM.

For the compound `CN1CCc2cc(Cl)c(O)cc2[C@H]2c3cccc(NC(=O)Nc4c(Cl)cccc4Cl)c3CC[C@@H]21`, the results for the Ki in series [1] and in series [3] were 7.1 nM and 566 nM, respectively.

As for `CN1CCc2cc(Cl)c(O)cc2[C@H]2c3ccc(N)cc3CC[C@@H]21`, the Ki in series [1] is 7 nM; in series [2] it was 8.3 nM; in series [3], 5400 nM; in series [4] it was > 10 µM.

Turning to `CN1CCc2cc(Cl)c(O)cc2[C@H]2c3ccc(NS(C)(=O)=O)cc3CC[C@@H]21`, the Ki in series [1] was 0.5 nM; in series [2], 5.8 nM; in series [3] it was 3000 nM; in series [4], > 10 µM. In series [6], the AUC turned out to be 2490 ng·h/mL. In series [7], this compound returned a bioavailability of 29%.

Consider `CCNC(=O)Nc1ccc2c(c1)CC[C@H]1[C@H]2c2cc(O)c(Cl)cc2CCN1C`, for which the Ki in series [1] is 1.5 nM; in series [2], 7.1 nM; in series [3], 6000 nM; in series [4] it was > 10 µM.

As for `CCNC(=O)Nc1cccc2c1CC[C@H]1[C@H]2c2cc(O)c(Cl)cc2CCN1C`, the Ki in series [1] amounted to 2.4 nM; in series [3], 900 nM.

In the case of `CN1CCc2cc(Cl)c(O)cc2[C@H]2c3cccc(NS(C)(=O)=O)c3CC[C@@H]21`, the values for the inhibition constant (Ki) in series [1] and in series [3] were 4.7 nM and 1000 nM, respectively.

As for `CN1CCc2cc(Cl)c(O)cc2[C@H]2c3ccc(NC(=O)Nc4c(Cl)cccc4Cl)cc3CC[C@@H]21`, the Ki in series [1] was 0.7 nM; in series [3], 1090 nM.

Regarding `CCS(=O)(=O)Nc1ccc2c(c1)CC[C@H]1[C@H]2c2cc(O)c(Cl)cc2CCN1C`, the Ki in series [1] was 0.7 nM; in series [2] it was 5.6 nM; in series [3], 3300 nM; in series [4], > 10 µM.

For the compound `CN1CCc2cc(Cl)c(O)cc2[C@@H](c2ccc(CN(C)S(=O)(=O)c3ccccc3)cc2)C1`, the Ki is 0.6 nM in series [1], 1.2 nM in series [2], 331 nM in series [3] and 4.33 µM in series [4].

As to `CN1CCc2cc(Cl)c(O)cc2[C@H]2c3cc(CN4CCCCC4)ccc3CC[C@@H]21`, the Ki is 225 nM in series [1] and 26 nM in series [3]. In addition, in series [5], the Ratio Ki is 8.7.

Turning to `CCOC(=O)Nc1ccc2c(c1)CC[C@H]1[C@H]2c2cc(O)c(Cl)cc2CCN1C`, the Ki in series [1] was 1.4 nM; in series [2], 3.3 nM; in series [3] it was 3900 nM; in series [4], > 10 µM.

For `CCS(=O)(=O)Nc1cccc2c1CC[C@H]1[C@H]2c2cc(O)c(Cl)cc2CCN1C`, the Ki is 5.8 nM in series [1] and 618 nM in series [3].

With `CN1CCc2cc(Cl)c(O)cc2[C@@H](c2ccc(CNC3CCC3)cc2)C1`, the Ki was 3.9 nM in series [2], 2000 nM in series [3] and > 10 µM in series [4].

On to `CN1CCc2cc(Cl)c(O)cc2[C@H]2c3ccc(NC(=O)C4CC4)cc3CC[C@@H]21`, for which the Ki in series [1] is 2.3 nM; in series [3], > 10000 nM.

These data come from ChEMBL document CHEMBL1156835, “Discovery of new SCH 39166 analogs as potent and selective dopamine D1 receptor antagonists” (Bioorg Med Chem Lett, 2010).
